Tests used:
NCI-H441 [1] = assay: In vivo combination of 224G11 and Docetaxel on NCI-H441 xenograft model; parameters: species or system Athymic nude mice; details: D11 to D35; Docetaxel 7.5 mg/kg i.p.
Procedure: (§1) NCI-H441 cells from ATCC were routinely cultured in RPMI 1640 medium, 10% FCS, 1% L-Glutamine. Cells were split two days before engraftment being in exponential phase of growth. Nine million NCI-H441 cells were engrafted to Athymic nude mice. […] Mice were treated i.p. either with a loading dose of 2 mg of 224G11 Mab/mouse and then twice a week with 1 mg of antibody/mouse or with 4 injections of Docetaxel (D5, D12, D19, D26) at 7.5 mg/kg. A third group administered with the combine treatment was also included. Docetaxel was given by i.p. injections. Tumor volume was measured twice a week and calculated by the formula: π/6×length×width×height and animal weights were monitored every day over the period of Docetaxel treatment. Statistical analysis was performed at each measured time using either a t-test or a Mann-Whitney test. […] Results are represented in FIG. 47.

NCI-H441 [2] = assay: In vivo combination of 224G11 and Doxorubicin on NCI-H441 xenograft model; parameters: species or system Athymic nude mice; details: D11 to D39; Doxorubicin 5 mg/kg i.v.
Procedure: as §1, with “growth. Ten” for “growth. Nine”, “of Doxorubicin” for “of Docetaxel”, “at 5” for “at 7.5”, “included. Doxorubicin” for “included. Docetaxel”, “by i.v.” for “by i.p.”, “FIG. 46.” for “FIG. 47.”

c-Met-Fc = biological target: T1, c-Met-Fc (Homo sapiens, UniProt P08581); assay: Displacement of [125I]-HGF binding to immobilized c-Met; details: 0.1 pM to 1 μM
T1 construct: c-Met extracellular domain fusion protein (10-15 g/dose/mouse) (R&D Systems, Catalog #358MT); purchased R&D Systems
Procedure: To determine whether the anti-c-Met antibodies were able to displace HGF, binding experiments were set up. Briefly, protein A FlashPlate 96-well microplates (Perkin Elmer) were saturated with 0.5% gelatine in PBS (200 μl/well, 2 h at room temperature) before adding recombinant c-Met-Fc (R&D Systems) as a coating protein. […] of a 1 μg/ml c-Met-Fc solution in PBS were added to each well. Plates were then incubated overnight at 4° C. Free residual Protein A sites were further saturated with a non relevant hIgG (0.5 μg/well in PBS) for 2 h at room temperature. Plates were washed with PBS after each step.
For competition assays, binding of [^125I]-HGF (specific activity ˜2,000 Ci/mmol) at 200 pM to immobilized c-Met was measured in the presence of varying concentrations of the anti-c-Met monoclonal antibodies 11E1, 224G11, 223C4, 227H1 or HGF (R&D Systems) ranging from 0.1 pM to 1 μM in PBS pH 7.4. The plates were incubated at room temperature for 6 h, then counted on a Packard Top Count Microplate Scintillation Counter. Non specific binding was determined in the presence of […] of HGF. The monoclonal antibody 9G4, which is not directed at c-Met but specifically recognizes an E. coli protein, was used as mouse IgG1 isotype control.
Percent of total specific [^125I]-HGF binding was plotted as a function of ligand concentration on semilog graphs. […]

G55 = details: glioblastoma growing independently of HGF; cited from earlier work

T1 sequence (P08581 25-932 limits assumed): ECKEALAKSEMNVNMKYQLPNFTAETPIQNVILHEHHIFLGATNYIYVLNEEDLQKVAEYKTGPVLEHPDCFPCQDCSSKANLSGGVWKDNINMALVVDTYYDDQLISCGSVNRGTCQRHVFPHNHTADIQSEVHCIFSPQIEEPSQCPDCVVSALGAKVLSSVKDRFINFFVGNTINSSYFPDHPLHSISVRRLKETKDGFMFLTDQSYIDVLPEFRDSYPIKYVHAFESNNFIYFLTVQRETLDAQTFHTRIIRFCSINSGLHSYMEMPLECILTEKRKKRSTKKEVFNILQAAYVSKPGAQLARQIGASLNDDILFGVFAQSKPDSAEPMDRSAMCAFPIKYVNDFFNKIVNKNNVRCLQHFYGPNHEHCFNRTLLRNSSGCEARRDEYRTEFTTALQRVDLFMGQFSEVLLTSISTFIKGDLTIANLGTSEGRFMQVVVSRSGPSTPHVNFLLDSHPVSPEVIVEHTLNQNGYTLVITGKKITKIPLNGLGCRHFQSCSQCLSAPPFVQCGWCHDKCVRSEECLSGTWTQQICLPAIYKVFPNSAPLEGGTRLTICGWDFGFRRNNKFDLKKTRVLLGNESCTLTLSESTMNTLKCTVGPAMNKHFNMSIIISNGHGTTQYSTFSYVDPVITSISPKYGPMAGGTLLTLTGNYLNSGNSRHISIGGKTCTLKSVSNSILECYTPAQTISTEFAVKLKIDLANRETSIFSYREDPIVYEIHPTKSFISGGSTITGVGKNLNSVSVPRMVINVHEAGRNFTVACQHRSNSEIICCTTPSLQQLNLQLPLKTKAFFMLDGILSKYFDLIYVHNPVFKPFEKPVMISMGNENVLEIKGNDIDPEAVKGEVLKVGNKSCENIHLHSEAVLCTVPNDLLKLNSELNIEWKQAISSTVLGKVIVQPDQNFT

## CC(=O)O[C@@]12CO[C@@H]1C[C@H](O)[C@@]1(C)C(=O)[C@H](O)C3=C(C)[C@@H](OC(=O)[C@H](O)[C@@H](NC(=O)OC(C)(C)C)c4ccccc4)C[C@@](O)([C@@H](OC(=O)c4ccccc4)[C@H]21)C3(C)C [Docetaxel, reference compound]
NCI-H441 [1]
  anti-tumor activity compared to the control group: significant anti-tumor activity

## COc1cccc2c1C(=O)c1c(O)c3c(c(O)c1C2=O)C[C@@](O)(C(=O)CO)C[C@@H]3O[C@H]1C[C@H](N)[C@H](O)[C@H](C)O1 [Doxorubicin, reference compound]
NCI-H441 [2]
  anti-tumor activity compared to the control group: significant anti-tumor activity

## HGF: hepatocyte growth factor (R&D Systems), c-Met ligand used as unlabeled competitor
c-Met-Fc
  displacement of [125I]-HGF binding to immobilized c-Met: fully displace

B1: OA5D5: monovalent engineered form of 5D5 produced as a recombinant protein in E. Coli (Genentech) (antibody, chains of the INN, looked up, V domains shown)
VH: EVQLVESGGGLVQPGGSLRLSCAASGYTFTSYWLHWVRQAPGKGLEWVGMIDPSNSDTRFNPNFKDRFTISADTSKNTAYLQMNSLRAEDTAVYYCATYRSYVTPLDYWGQGTLVTVSS
VL: DIQMTQSPSSLSASVGDRVTITCKSSQSLLYTSSQKNYLAWYQQKPGKAPKLLIYWASTRESGVPSRFSGSGSGTDFTLTISSLQPEDFATYYCQQYYAYPWTFGQGTKVEIK
modifications: one-armed monovalent antibody
G55
  effect on G55 tumor growth: no significant effect
